# Columns and labels:
# [1] = system: C57BL/6 mouse with induced depression and anxiety disorder; assay: Open field test (OFT); format: in vivo; conditions: 150 mg/kg doxepin for 14 days, test on Day 15, vs control group
# Protocol: (§1) Fraxinus rhynchophylla extract was dissolved in physiological saline to have a concentration of 100 mg/kg for each, and then aliquoted. One hour before applying the stress for 14 days, the sample was administered via an oral route.
# (§2) A 7-week old male C57BL/6 mouse was acclimated for 1 week, and then exposed to a stress everyday between 10:00 to 14:00 o'clock. Specifically, 1 hour after the oral administration of a sample, an electric shock with strength of 0.5 mA was applied to the foot sole of the mouse for 1 sec with an interval of 10 seconds, for 2 minutes in total, by using a shuttle box (JD-SI-10, JEUNG DO BIO & PLANT CO, LTD, Seoul, S. Korea). […]
# Open field test is to determine the degree of anxiety, which is one symptom of depression, by measuring the voluntary movement of a mouse after entering an unfamiliar field for the first time. At the center (15 cm×15 cm) of an open box with a dimension of 30 cm×30 cm×30 cm, which is made of white acryl, a C57BL/6 mouse which has been induced to have depression and anxiety disorder was placed, and then total travel distance and frequency of center entry for 10 minutes were measured. For the measurement, after recording using a video camera, the overall movement of the C57BL/6 mouse was analyzed by using Video tracking software (SMART 3.0, Panlab, Spain). […]
# [2] = system: serotonin; assay: Serotonin level in blood serum (ELISA); format: in vivo, mouse; conditions: 150 mg/kg doxepin for 14 days, blood on Day 17, vs control group
# Protocol: as §1
# (§3) A 7-week old male C57BL/6 mouse was acclimated for 1 week, and then exposed to a stress everyday between 10:00 to 14:00 o'clock. Specifically, 1 hour after the oral administration of a sample, an electric shock with strength of 0.5 mA was applied to the foot sole of the mouse for 1 sec with an interval of 10 seconds, for 2 minutes in total, by using a shuttle box (JD-SI-10, JEUNG DO BIO & PLANT CO, LTD, Seoul, S. Korea). After applying the electric shock, the mouse was put to a hemicylindrical restraining device (JD-R 05A, JEUNG DO BIO & PLANT CO, LTD, Seoul, S. Korea) made of 30 mm-thick acryl, one animal in each device, and then restrained in the immobile state for 2 hours.
# (§4) In addition, for the control group, the 12-hour day and night cycle was maintained, but light illumination was applied to the test group for 24 hours to disrupt the regular living pattern, and thus a sleep-interfering environment was created (FIG. 5).
# The serotonin level in blood serum separated from each test animal was measured. […] Upon the completion of the reaction, absorbance at a wavelength of 405 nm was measured by using a microplate reader.
# [3] = system: BDNF and mBDNF; assay: Expression of BDNF and mBDNF in hippocampal tissues (Western blot); format: in vivo, mouse; conditions: 150 mg/kg doxepin for 14 days, tissues on Day 17, vs control group
# Protocol: as §1
# as §3, with “hours. […]” for “hours.”
# Protein expression pattern in brain hippocampal tissues which have been collected from each test animal was determined by Western blot analysis. […] After obtaining the protein amount in each sample, the protein was quantified to 1 μg/μl, and then the expression amount of protein was measured by using Mini PROTEAN TGX Gels.
# [4] = Bodyweight change in mouse with induced depression and anxiety disorder; format: in vivo; conditions: 150 mg/kg doxepin, Day 7 or Day 14, vs control group
# Protocol: as §1, §2
# A change in body weight caused by administration of the ethanol extract of Fraxinus rhynchophylla of the present invention was determined in the animal model with induced depression and anxiety disorder. Specifically, the bodyweight of a mouse was measured, before the exposure to stress (Day 0), or on Day 7 or Day 14 after the exposure to stress for the normal group, the control group (i.e., group induced with depression and anxiety disorder), the test group (i.e., group administered with the ethanol extract of Fraxinus rhynchophylla of the present invention), and the positive control group (i.e., group administered with doxepin) (FIG. 6). […]
# [5] = system: pCREB; assay: Expression ratio of pCREB protein in hippocampal tissues (Western blot); format: in vivo, mouse; conditions: 150 mg/kg doxepin for 14 days, tissues on Day 17, vs control group
# [6] = system: cortisol; assay: Cortisol level in blood serum (ELISA); format: in vivo, mouse; conditions: 150 mg/kg doxepin for 14 days, blood on Day 17, vs control group
# Protocol: as §1, §3, §4
# The cortisol level in blood serum separated from each test animal was measured. […] Absorbance at 405 nm was then measured.
# [7] = system: C57BL/6 mouse with induced depression and anxiety disorder; assay: Forced swim test (FST); format: in vivo; conditions: 150 mg/kg doxepin for 14 days, test on Day 15, vs control group
# Protocol: as §1
# as §3, with “hours. […]” for “hours.”
# Forced swim test is a test to determine despair among the symptoms of depression, and the immobility of a mouse was checked using a cylinder having a depth which prevents the animal from touching its paws or tail to the floor of the cylinder. […] Then, the immobility time during 4 minutes, i.e., excluding initial 2 minutes as adaptation period from the total 6 minutes, was measured.
smiles,measurement,setting,value
CN(C)CCC=C1c2ccccc2COc2ccccc21 [doxepin],number of center entry,[1],increased in statistically significant sense
same,travel distance within the center zone,[1],increase in statistically significant sense
same,serotonin hormone level in blood,[2],increased in statistically significant sense
same,relative expression amount of BDNF in hippocampal tissues,[3],increase in statistically significant sense
same,relative expression amount of mBDNF in hippocampal tissues,[3],increase in statistically significant sense
same,bodyweight (gain rate),[4],increased in statistically significant sense
same,expression ratio of pCREB protein (pCREB/CREB) in hippocampal tissues,[5],increase in statistically significant sense
same,blood cortisol level,[6],decreased in statistically significant sense
same,immobility time,[7],decreased in statistically significant sense

# Reference: US11253566B2, “Composition for ameliorating, or treating depression and anxiety disorder comprising Fraxinus rhynchophylla extract as effective ingredient” (priority 2017, dated 2022)
